What was measured:
late watergrass [1] = test: Test Example 1: herbicidal activity, application before weed generation under submerged conditions (Table 16, symbol A); type: in vivo, late watergrass (Echinochloa oryzicola); conditions: for Herbicidal effect, A: late watergrass: amount of applied herbicide 320 g/ha; for Herbicidal effect on A: late watergrass (grade 0-5): 320 g/ha applied herbicide
How it was run: (§1)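 Emulsion formulation, water-diluted to set dose, was put onto the flooded surface (4 cm depth, alluvial soil) the same day weeds were sown and 2.5-leaf rice transplanted. After 3 weeks at 25-30 °C under glass, each species was rated 0 (≤5% kill) to 5 (≥90% kill).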

Japanese bulrush [2] = test: Test Example 1: herbicidal activity, application before weed generation under submerged conditions (Table 16, symbol B); type: in vivo, Japanese bulrush (Schoenoplectus juncoides); conditions: for Herbicidal effect, B: Japanese bulrush: amount of applied herbicide 320 g/ha; for Herbicidal effect on B: Japanese bulrush (grade 0-5): 320 g/ha applied herbicide
How it was run: as §1

oval-leafed pondweed [3] = test: Test Example 1: herbicidal activity, application before weed generation under submerged conditions (Table 16, symbol C); type: in vivo, oval-leafed pondweed (Monochoria vaginalis); conditions: for Herbicidal effect, C: oval-leafed pondweed: amount of applied herbicide 320 g/ha; for Herbicidal effect on C: oval-leafed pondweed (grade 0-5): 320 g/ha applied herbicide
How it was run: as §1

late watergrass [4] = test: Test Example 2: herbicidal activity, application during weed generation under submerged conditions (Table 17, symbol A); type: in vivo, late watergrass (Echinochloa oryzicola); conditions: AAH 320 g/ha; application during weed generation, submerged conditions
How it was run: (§2)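 In this pot test, flooded alluvial soil (water depth 4 cm) holds all three species sown as a mixture. Once seedlings have one to two leaves, the compound's emulsion, thinned with water to the intended dose, is poured on the water; grading follows after three weeks on the earlier criteria.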

Japanese bulrush [5] = test: Test Example 2: herbicidal activity, application during weed generation under submerged conditions (Table 17, symbol B); type: in vivo, Japanese bulrush (Schoenoplectus juncoides); conditions: AAH 320 g/ha; application during weed generation, submerged conditions
How it was run: as §2

oval-leafed pondweed [6] = test: Test Example 2: herbicidal activity, application during weed generation under submerged conditions (Table 17, symbol C); type: in vivo, oval-leafed pondweed (Monochoria vaginalis); conditions: AAH 320 g/ha; application during weed generation, submerged conditions
How it was run: as §2

barnyard grass [7] = test: Test Example 3: herbicidal effect by foliage application, Wagner pot (Table 18, symbol H); type: in vivo, barnyard grass (Echinochloa crus-galli); conditions: for herbicidal effect on barnyard grass (H): 320 g/ha; for herbicidal effect on H: barnyard grass: amount of applied herbicide 320 g/ha
How it was run: (§3)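 Plants were sown in alluvial soil held under 0.1–0.5 cm standing water and grown 14 days in a greenhouse at 25–30 °C. An emulsifiable formulation, water-diluted to the set dose, was then sprayed onto the foliage, and effects were scored three weeks later using previously defined criteria.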

Chinese sprangletop = test: Test Example 3: herbicidal effect by foliage application, Wagner pot (Table 18, symbol D); type: in vivo, chinese sprangletop (Leptochloa chinensis); conditions: for herbicidal effect on Chinese sprangletop (D): 320 g/ha; for herbicidal effect on D: Chinese sprangletop: amount of applied herbicide 320 g/ha
How it was run: as §3

rice flat sedge = test: Test Example 3: herbicidal effect by foliage application, Wagner pot (Table 18, symbol E); type: in vivo, rice flat sedge (Cyperus iria); conditions: for herbicidal effect on rice flat sedge (E): 320 g/ha; for herbicidal effect on E: rice flat sedge: amount of applied herbicide 320 g/ha
How it was run: as §3

southern crabgrass = test: Test Example 5: herbicidal effect by foliage application, plastic box (Table 20, symbol F); type: in vivo, southern crabgrass (Digitaria ciliaris); conditions: foliage application, 320 g/ha, three weeks after application
How it was run: (§4)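 Post-emergence foliar test in sterilized diluvial soil. Compound applied as water-diluted emulsion at a predetermined rate to 14-day-old plants; evaluation at three weeks.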

green foxtail = test: Test Example 5: herbicidal effect by foliage application, plastic box (Table 20, symbol G); type: in vivo, green foxtail (Setaria viridis); conditions: foliage application, 320 g/ha, three weeks after application
How it was run: as §4

barnyard grass [8] = test: Test Example 5: herbicidal effect by foliage application, plastic box (Table 20, symbol H); type: in vivo, barnyard grass (Echinochloa crus-galli); conditions: foliage application, 320 g/ha, three weeks after application
How it was run: as §4

wild oat = test: Test Example 5: herbicidal effect by foliage application, plastic box (Table 20, symbol I); type: in vivo, wild oat (Avena fatua); conditions: foliage application, 320 g/ha, three weeks after application
How it was run: as §4

blackgrass = test: Test Example 5: herbicidal effect by foliage application, plastic box (Table 20, symbol J); type: in vivo, blackgrass (Alopecurus myosuroides); conditions: foliage application, 320 g/ha, three weeks after application
How it was run: as §4

Italian ryegrass = test: Test Example 5: herbicidal effect by foliage application, plastic box (Table 20, symbol K); type: in vivo, Italian ryegrass (Lolium multiflorum); conditions: foliage application, 320 g/ha, three weeks after application
How it was run: as §4

windgrass = test: Test Example 5: herbicidal effect by foliage application, plastic box (Table 20, symbol L); type: in vivo, windgrass (Apera spica-venti); conditions: foliage application, 320 g/ha, three weeks after application
How it was run: as §4

velvetleaf = test: Test Example 5: herbicidal effect by foliage application, plastic box (Table 20, symbol M); type: in vivo, velvetleaf (Abutilon theophrasti); conditions: foliage application, 320 g/ha, three weeks after application
How it was run: as §4

lambsquarters = test: Test Example 5: herbicidal effect by foliage application, plastic box (Table 20, symbol O); type: in vivo, lambsquarters (Chenopodium album); conditions: foliage application, 320 g/ha, three weeks after application
How it was run: as §4

persian speedwell = test: Test Example 5: herbicidal effect by foliage application, plastic box (Table 20, symbol R); type: in vivo, Persian speedwell (Veronica persica); conditions: foliage application, 320 g/ha, three weeks after application
How it was run: as §4

| Structure (SMILES) | Herbicidal effect, A: late watergrass (late watergrass [1]) | Herbicidal effect, B: Japanese bulrush (Japanese bulrush [2]) | Herbicidal effect, C: oval-leafed pondweed (oval-leafed pondweed [3]) | herbicidal effect rating, A: late watergrass (late watergrass [4]) | herbicidal effect rating, B: Japanese bulrush (Japanese bulrush [5]) | herbicidal effect rating, C: oval-leafed pondweed (oval-leafed pondweed [6]) | herbicidal effect on barnyard grass (H) (barnyard grass [7]) | herbicidal effect on Chinese sprangletop (D) (Chinese sprangletop) | herbicidal effect on rice flat sedge (E) (rice flat sedge) | herbicidal effect on southern crabgrass (F) (southern crabgrass) | herbicidal effect on green foxtail (G) (green foxtail) | herbicidal effect on barnyard grass (H) (barnyard grass [8]) | herbicidal effect on wild oat (I) (wild oat) | herbicidal effect on blackgrass (J) (blackgrass) | Herbicidal effect on A: late watergrass (grade 0-5) (late watergrass [1]) | Herbicidal effect on B: Japanese bulrush (grade 0-5) (Japanese bulrush [2]) | Herbicidal effect on C: oval-leafed pondweed (grade 0-5) (oval-leafed pondweed [3]) | herbicidal effect on H: barnyard grass (barnyard grass [7]) | herbicidal effect on D: Chinese sprangletop (Chinese sprangletop) | herbicidal effect on E: rice flat sedge (rice flat sedge) | further results |
| --- | --- | --- | --- | --- | --- | --- | --- | --- | --- | --- | --- | --- | --- | --- | --- | --- | --- | --- | --- | --- | --- |
| CCCC(=O)Oc1c(C)nn(C)c(=O)c1-c1c(-c2ccc(OC)cc2)sc2cc(C)c(C)cc12 [5-093] | 2 (Herbicidal rate of 20% or more and less than 40%) | 0 (Herbicidal rate of 5% or less (almost no effect)) | 0 (Herbicidal rate of 5% or less (almost no effect)) | 2 (Herbicidal rate of 20% or more and less than 40%) | 0 (Herbicidal rate of 5% or less (almost no effect)) | 0 (Herbicidal rate of 5% or less (almost no effect)) | 1 (Herbicidal rate of 5% or more and less than 20%) | 2 (Herbicidal rate of 20% or more and less than 40%) | 2 (Herbicidal rate of 20% or more and less than 40%) | 0 (Herbicidal rate of 5% or less (almost no effect)) | 0 (Herbicidal rate of 5% or less (almost no effect)) | 0 (Herbicidal rate of 5% or less (almost no effect)) | 0 (Herbicidal rate of 5% or less (almost no effect)) | 0 (Herbicidal rate of 5% or less (almost no effect)) |  |  |  |  |  |  | herbicidal effect on Italian ryegrass (K) (Italian ryegrass): 0 (Herbicidal rate of 5% or less (almost no effect)); herbicidal effect on windgrass (L) (windgrass): 0 (Herbicidal rate of 5% or less (almost no effect)); herbicidal effect on velvetleaf (M) (velvetleaf): 1 (Herbicidal rate of 5% or more and less than 20%); herbicidal effect on lambsquarters (O) (lambsquarters): 3 (Herbicidal rate of 40% or more and less than 70%); herbicidal effect on persian speedwell (R) (persian speedwell): 0 (Herbicidal rate of 5% or less (almost no effect)) |
| Cc1nn(C)c(=O)c(-c2c(-c3ccc(CS(C)(=O)=O)cc3)sc3ccc(F)cc23)c1O [2-334] |  |  |  | 3 (Herbicidal rate of 40% or more and less than 70%) | 0 (Herbicidal rate of 5% or less (almost no effect)) | 0 (Herbicidal rate of 5% or less (almost no effect)) |  |  |  |  |  |  |  |  | 3 (Herbicidal rate of 40% or more and less than 70%) | 0 (Herbicidal rate of 5% or less (almost no effect)) | 0 (Herbicidal rate of 5% or less (almost no effect)) | 5 (Herbicidal rate of 90% or more (almost completely withered)) | 4 (Herbicidal rate of 70% or more and less than 90%) | 5 (Herbicidal rate of 90% or more (almost completely withered)) |  |
| CCCC(=O)Oc1c(C)nn(C)c(=O)c1-c1c(-c2ccc(F)cc2OCC)sc2cc(C)c(C)cc12 [5-104] | 4 (Herbicidal rate of 70% or more and less than 90%) | 0 (Herbicidal rate of 5% or less (almost no effect)) | 0 (Herbicidal rate of 5% or less (almost no effect)) | 4 (Herbicidal rate of 70% or more and less than 90%) | 4 (Herbicidal rate of 70% or more and less than 90%) | 4 (Herbicidal rate of 70% or more and less than 90%) | 5 (Herbicidal rate of 90% or more (almost completely withered)) | 5 (Herbicidal rate of 90% or more (almost completely withered)) | 4 (Herbicidal rate of 70% or more and less than 90%) | 5 (Herbicidal rate of 90% or more (almost completely withered)) | 4 (Herbicidal rate of 70% or more and less than 90%) | 4 (Herbicidal rate of 70% or more and less than 90%) | 4 (Herbicidal rate of 70% or more and less than 90%) | 4 (Herbicidal rate of 70% or more and less than 90%) |  |  |  |  |  |  | herbicidal effect on Italian ryegrass (K) (Italian ryegrass): 4 (Herbicidal rate of 70% or more and less than 90%); herbicidal effect on windgrass (L) (windgrass): 4 (Herbicidal rate of 70% or more and less than 90%); herbicidal effect on velvetleaf (M) (velvetleaf): 4 (Herbicidal rate of 70% or more and less than 90%); herbicidal effect on lambsquarters (O) (lambsquarters): 4 (Herbicidal rate of 70% or more and less than 90%); herbicidal effect on persian speedwell (R) (persian speedwell): 5 (Herbicidal rate of 90% or more (almost completely withered)) |
| COc1cc(OC)cc(-c2sc3ccc(F)cc3c2-c2c(O)c(C)nn(C)c2=O)c1 [2-360] |  |  |  | 2 (Herbicidal rate of 20% or more and less than 40%) | 0 (Herbicidal rate of 5% or less (almost no effect)) | 0 (Herbicidal rate of 5% or less (almost no effect)) |  |  |  |  |  |  |  |  | 3 (Herbicidal rate of 40% or more and less than 70%) | 2 (Herbicidal rate of 20% or more and less than 40%) | 0 (Herbicidal rate of 5% or less (almost no effect)) | 5 (Herbicidal rate of 90% or more (almost completely withered)) | 4 (Herbicidal rate of 70% or more and less than 90%) | 3 (Herbicidal rate of 40% or more and less than 70%) |  |
| CCCC(=O)Oc1c(C)nn(C)c(=O)c1-c1c(-c2ccc(C(F)(F)F)cc2Cl)sc2ccc(F)cc12 [2-357] |  |  |  | 2 (Herbicidal rate of 20% or more and less than 40%) | 0 (Herbicidal rate of 5% or less (almost no effect)) | 0 (Herbicidal rate of 5% or less (almost no effect)) |  |  |  |  |  |  |  |  | 4 (Herbicidal rate of 70% or more and less than 90%) | 2 (Herbicidal rate of 20% or more and less than 40%) | 0 (Herbicidal rate of 5% or less (almost no effect)) | 5 (Herbicidal rate of 90% or more (almost completely withered)) | 3 (Herbicidal rate of 40% or more and less than 70%) | 2 (Herbicidal rate of 20% or more and less than 40%) |  |

Source: patent US20230085307A1, “PYRIDAZINONE COMPOUND AND HERBICIDE” (NISSAN CHEMICAL CORPORATION, priority 2019, published 2023)
